Experimental data published in ChEMBL document CHEMBL5335777 (Eur J Med Chem, 2023).
Calls of active or inactive are those of the source. The calls are words filed in the database; no cut-off is given here.

Experiments:
[1] = system: GTPase KRas (Homo sapiens), P01116 [G12C]; experiment: Covalent binding affinity to GDP-bound human KRAS-4B G12C mutant (1 to 169 residues) expressed in Escherichia coli BL21 Rosetta cells at 200 uM measured after 15 mins by Ellman's assay
[2] = system: GTPase KRas (Homo sapiens), P01116 [G12C]; experiment: Covalent binding affinity to GDP-bound human KRAS-4B G12C mutant (1 to 169 residues) expressed in Escherichia coli BL21 Rosetta cells assessed as reduction in free Cys residues at 200 uM measured after 1 hr by Ellman's assay
NCI-H358 = experiment: Antiproliferative activity against human NCI-H358 cells harboring heterozygous KRAS G12C mutant assessed as inhibition of cell growth incubated for 72 hrs by MTT assay; format: functional, cell-based; conditions: NCI-H358, 72 h
[3] = AUCt in NOD-SCID mouse at 15 mg/kg, ip administered as single dose and measured upto 48 hrs by HPLC/MS analysis; format: ADME, organism-based; set-up: dose 15 mg/kg, time < 48 hrs, route ip; conditions: in vivo
[4] = system: GTPase KRas (Homo sapiens), P01116 [G12C]; experiment: Binding affinity to Cys80 residue of GDP bound human KRAS-4B G12C mutant (1 to 169 residues) expressed in Escherichia coli BL21 Rosetta cells at 150 to 500 uM measured after 96 hrs by 1H-15N HSQC NMR spectral analysis; conditions: dose 150-500 µM
[5] = system: GTPase KRas (Homo sapiens), P01116 [G12C]; experiment: Covalent binding affinity to GDP-bound human KRAS-4B G12C mutant (1 to 169 residues) expressed in Escherichia coli BL21 Rosetta cells at 200 uM measured after 4 hrs by Ellman's assay
MIA PaCa-2 = experiment: Antiproliferative activity against human MIA PaCa-2 cells harboring homozygous KRAS G12C mutant assessed as inhibition of cell growth incubated for 72 hrs by MTT assay; format: functional, cell-based; conditions: MIA PaCa-2, 72 h
BXPC-3 = experiment: Antiproliferative activity against human BXPC-3 cells harboring wild type KRAS assessed as inhibition of cell growth incubated for 72 hrs by MTT assay; format: functional, cell-based; conditions: BXPC-3, 72 h
NCI-H1792 = experiment: Antiproliferative activity against human NCI-H1792 cells harboring KRAS G12C mutant assessed as cell viability at 25 uM incubated for 72 hrs by MTT assay relative to control; format: functional; conditions: read-out: Activity
[6] = Volume of distribution in NOD-SCID mouse at 15 mg/kg, ip administered as single dose and measured upto 48 hrs by HPLC/MS analysis; format: ADME, organism-based; conditions: in vivo
LCLC-103H cell line [7] = experiment: Antiproliferative activity against human LCLC-103H cells harboring wild type KRAS assessed as inhibition of cell growth incubated for 72 hrs by MTT assay; format: functional, cell-based
[8] = Toxicity in immunodeficient NOD-SCID mouse xenografted with human LCLC-103H cells harboring wild type KRAS assessed as body weight at 5 to 30 mg/kg, ip administered for 5 times at 5 mg/kg in first week followed by administration at 20 mg/kg 5 times in second week and further administered 30 mg/kg 3 times in third week measured 17 days post treatment initiation and 35 days post tumor transplantation (reference value: 2.6 g); format: organism-based; conditions: in vivo, 408 h, dose 5-30 mg/kg, time 17 day
SW1573 = experiment: Antiproliferative activity against human SW1573 cells harboring homozygous KRAS G12C mutant assessed as inhibition of cell growth incubated for 72 hrs by MTT assay; format: functional, cell-based; conditions: SW1573, 72 h
[9] = Tmax in NOD-SCID mouse at 15 mg/kg, ip administered as single dose and measured upto 48 hrs by HPLC/MS analysis; format: ADME, organism-based; conditions: in vivo
[10] = Cmax in NOD-SCID mouse at 15 mg/kg, ip administered as single dose and measured upto 48 hrs by HPLC/MS analysis; format: ADME, organism-based; set-up: time < 48 hrs, dose 15 mg/kg, route ip; conditions: in vivo
[11] = system: GTPase KRas (Homo sapiens), P01116 [G12C]; experiment: Binding affinity to Cys51 residue of GDP bound human KRAS-4B G12C mutant (1 to 169 residues) expressed in Escherichia coli BL21 Rosetta cells at 150 to 500 uM measured after 96 hrs by 1H-15N HSQC NMR spectral analysis; conditions: dose 150-500 µM
LCLC-103H cell line [12] = experiment: Antitumor activity against human LCLC-103H cells harboring wild type KRAS xenografted in immunodeficient NOD-SCID mouse assessed as tumor volume at 5 to 30 mg/kg, ip administered for 5 times at 5 mg/kg in first week followed by administration at 20 mg/kg 5 times in second week and further administered 30 mg/kg 3 times in third week measured 17 days post treatment initiation and 35 days post tumor transplantation by digital caliper based analysis; format: functional; conditions: dose 5-30 mg/kg, time 17 day
[13] = system: GTPase KRas (Homo sapiens), P01116 [G12C]; experiment: Binding affinity to Cys12 residue of GDP bound human KRAS-4B G12C mutant (1 to 169 residues) expressed in Escherichia coli BL21 Rosetta cells at 150 to 500 uM measured after 96 hrs by 1H-15N HSQC NMR spectral analysis; conditions: dose 150-500 µM
[14] = Clearance in NOD-SCID mouse at 15 mg/kg, ip administered as single dose and measured upto 48 hrs by HPLC/MS analysis; format: ADME, organism-based; conditions: in vivo
SW480 = experiment: Antiproliferative activity against human SW480 cells harboring homozygous KRAS G12V mutant assessed as inhibition of cell growth incubated for 72 hrs by MTT assay; format: functional, cell-based; conditions: SW480, 72 h
Homo sapiens = species on record: Homo sapiens; experiment: Inhibition of GDP-bound human KRAS 149stop G12C mutant expressed in Escherichia coli BL21 Rosetta cells assessed as inhibition of SOS1 mediated nucleotide exchange at 250 uM measured after 24 hrs by fluorescence based analysis
[15] = Toxicity in immunodeficient NOD-SCID mouse xenografted with human NCI-H1792 cells harboring KRAS G12C mutant assessed as body weight at 5 to 30 mg/kg, ip administered for 5 times at 5 mg/kg in first week followed by administration at 20 mg/kg 5 times in second week and further administered 30 mg/kg 3 times in third week measured 20 days post treatment initiation and 38 days post tumor transplantation (reference value: 6.6 g); format: organism-based; conditions: in vivo, 480 h, dose 5-30 mg/kg, time 20 day
[16] = Cytotoxicity against human CCD-986Sk cells assessed as inhibition of cell growth incubated for 72 hrs by MTT assay; format: toxicity, cell-based
A549 = experiment: Antiproliferative activity against human A549 cells harboring homozygous KRAS G12S mutant assessed as inhibition of cell growth incubated for 72 hrs by MTT assay; format: functional, cell-based; conditions: A549, 72 h
[17] = Cytotoxicity against human MRC5 cells assessed as inhibition of cell growth incubated for 72 hrs by MTT assay; format: toxicity, cell-based
[18] = Antiproliferative activity against human HCA-7 cells harboring wild type KRAS assessed as inhibition of cell growth incubated for 72 hrs by MTT assay; format: functional, cell-based, HCA7; conditions: HCA-7, 72 h
[19] = Toxicity in immunodeficient NOD-SCID mouse xenografted with human NCI-H1792 cells harboring KRAS G12C mutant assessed as body weight at 5 to 30 mg/kg, ip administered for 5 times at 5 mg/kg in first week followed by administration at 20 mg/kg 5 times in second week and further administered 30 mg/kg 3 times in third week measured 17 days post treatment initiation and 35 days post tumor transplantation (reference value: 6.6 g); format: organism-based; conditions: in vivo, 408 h, dose 5-30 mg/kg, time 17 day
[20] = Half life in NOD-SCID mouse at 15 mg/kg, ip administered as single dose and measured upto 48 hrs by HPLC/MS analysis; format: ADME, organism-based; conditions: in vivo

## O=Cc1c(O)ccc2ccccc12
[1]
  Activity: Active
[2]
  Activity: Active
NCI-H358
  IC50: 12.3 µM
[3]
  AUC(0-t) at 48 h: 28300 ng·h/mL
[4]
  Activity: inactive
[5]
  Activity: 100%
MIA PaCa-2
  IC50: 24.5 µM
BXPC-3
  IC50: 46.9 µM
NCI-H1792
  viability at 25 µM: < 50%
[6]
  Vd: 63.6 mL
LCLC-103H cell line [7]
  IC50: 32.4 µM
[8]
  Activity: 0 g
SW1573
  IC50: 24.2 µM
[9]
  Tmax: 0.25 h
[10]
  Cmax: 27400 ng/mL
[11]
  Activity: inactive
LCLC-103H cell line [12]
  Activity: 9.2 mm3
[13]
  Activity: Active
[14]
  CL/F: 0.183 mL/min
SW480
  IC50: 44.5 µM
Homo sapiens
  inhibition: Active
[15]
  Activity: 4.9 g
[16]
  IC50 at 72 h: 66.2 µM
A549
  IC50: 43.3 µM
[17]
  IC50 at 72 h: 25 µM
[18]
  IC50: 26.2 µM
[19]
  Activity: 5.2 g
[20]
  half-life: 4 h
